Assays:
[1] = Displacement of [3H]12-O-tetradecanoyl-phorbol-13-acetate from TPA receptor
Mus musculus = species on record: Mus musculus; assay: Toxicity in mouse by ear irritant test; format: organism-based; settings: in vivo

With `C=C[C@@](C)(CCC(O)C(=C)C)c1ccc2c3c(c[nH]c13)C[C@@H](CO)NC(=O)[C@H](C(C)C)N2C` (some centres undefined) [LYNGBYATOXI B] the ED50 [1] was 2200 nM and the Activity (Mus musculus) was “Toxic”.

With `C=C[C@@](C)(C/C=C/C(C)(C)O)c1ccc2c3c(c[nH]c13)C[C@@H](CO)NC(=O)[C@H](C(C)C)N2C` [LYNGBYATOXIN C] the ED50 [1] was 200 nM and the Activity (Mus musculus) was “Toxic”.

Reference: ChEMBL document CHEMBL1150190, “Lyngbyatoxins B and C, two new irritants from Lyngbya majuscula” (J Nat Prod, 1990)
